# In patent US9193736B2, “PDE 10a inhibitors for the treatment of type II diabetes” (Janssen Pharmaceutica, NV, priority 2013, dated 2015):
# Counter-ions that a name gives are not always drawn.
# Key:
# [1] = target: Human recombinant PDE10A2 (Homo sapiens (Human), UniProt Q9Y233); experiment: In vitro hPDE10a: human recombinant PDE10A2 scintillation proximity assay, IC50; format: biochemical; conditions: human recombinant PDE10A2, SPA, 60 nM cAMP; read-out: hPDE10a2 IC50
# In short: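 Purified recombinant human PDE10A2 (Ni-sepharose) was assayed by SPA, counting [3H]-AMP product captured on yttrium silicate beads added in zinc sulphate stop solution. Inhibition was expressed as % of activity without compound, with a no-enzyme low control. Repeat data points were aggregated.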
# [2] = target: Rat recombinant PDE10a (rPDE10a) (Rattus norvegicus (Rat), UniProt Q9QYJ6); experiment: In vitro assay PDE10a: rat recombinant PDE10a SPA with 3H-cAMP substrate, IC50; format: biochemical; conditions: 60 nM cAMP, read-out: rPDE10a2 IC50
# In short: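 Enzyme expressed in Sf9 cells via baculovirus and Ni-sepharose purified; reaction with 3H-cAMP ran 60 min at rt, stopped with PDE SPA beads. Compounds diluted in DMSO at 100-fold final concentration; blanks omitted enzyme.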
# Rat recombinant PDE10a (rPDE10a), sequence (Q9QYJ6 whole entry): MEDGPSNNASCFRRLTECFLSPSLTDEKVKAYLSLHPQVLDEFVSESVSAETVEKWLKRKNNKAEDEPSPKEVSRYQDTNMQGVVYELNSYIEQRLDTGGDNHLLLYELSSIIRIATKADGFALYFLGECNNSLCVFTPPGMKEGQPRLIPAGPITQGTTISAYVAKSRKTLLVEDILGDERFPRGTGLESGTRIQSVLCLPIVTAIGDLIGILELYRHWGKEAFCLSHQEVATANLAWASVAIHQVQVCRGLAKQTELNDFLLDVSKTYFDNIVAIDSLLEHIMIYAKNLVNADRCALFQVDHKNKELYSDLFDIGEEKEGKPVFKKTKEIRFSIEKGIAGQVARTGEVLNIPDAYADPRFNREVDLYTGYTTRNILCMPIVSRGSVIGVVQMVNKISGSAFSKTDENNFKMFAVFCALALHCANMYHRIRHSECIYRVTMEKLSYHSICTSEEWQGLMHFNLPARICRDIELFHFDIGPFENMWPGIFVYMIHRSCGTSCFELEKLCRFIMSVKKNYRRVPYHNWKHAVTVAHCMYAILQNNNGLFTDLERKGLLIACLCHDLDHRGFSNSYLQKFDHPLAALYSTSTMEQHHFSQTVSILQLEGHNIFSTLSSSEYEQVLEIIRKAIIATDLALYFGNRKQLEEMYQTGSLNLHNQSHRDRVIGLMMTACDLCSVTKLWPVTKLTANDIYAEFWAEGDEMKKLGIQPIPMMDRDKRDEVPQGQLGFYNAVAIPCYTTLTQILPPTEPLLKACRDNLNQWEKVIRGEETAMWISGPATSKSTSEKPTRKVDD
# Human recombinant PDE10A2, sequence (Q9Y233 267-1055): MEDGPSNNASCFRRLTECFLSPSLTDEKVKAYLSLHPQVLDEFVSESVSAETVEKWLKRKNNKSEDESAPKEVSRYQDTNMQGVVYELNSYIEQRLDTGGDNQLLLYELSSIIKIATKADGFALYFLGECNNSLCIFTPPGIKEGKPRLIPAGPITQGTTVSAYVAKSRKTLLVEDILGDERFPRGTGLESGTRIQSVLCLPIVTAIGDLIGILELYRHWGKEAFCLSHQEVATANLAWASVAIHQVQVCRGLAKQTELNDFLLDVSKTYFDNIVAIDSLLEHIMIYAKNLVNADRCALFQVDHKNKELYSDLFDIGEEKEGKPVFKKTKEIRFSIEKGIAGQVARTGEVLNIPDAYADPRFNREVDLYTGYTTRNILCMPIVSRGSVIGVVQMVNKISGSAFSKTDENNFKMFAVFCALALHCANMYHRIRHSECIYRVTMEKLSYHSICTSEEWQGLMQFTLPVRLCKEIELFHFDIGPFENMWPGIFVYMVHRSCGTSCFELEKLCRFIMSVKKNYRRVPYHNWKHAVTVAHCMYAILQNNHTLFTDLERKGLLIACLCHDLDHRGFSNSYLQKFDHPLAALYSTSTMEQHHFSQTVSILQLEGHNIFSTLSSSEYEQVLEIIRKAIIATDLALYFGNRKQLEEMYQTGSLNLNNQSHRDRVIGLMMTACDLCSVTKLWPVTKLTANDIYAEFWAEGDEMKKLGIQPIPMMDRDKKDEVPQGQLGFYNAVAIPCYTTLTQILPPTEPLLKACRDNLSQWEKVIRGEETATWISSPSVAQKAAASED
SMILES,IC50 [1],IC50 [2]
"C(=C\c1nc2c(N3CCOCC3)ccnn2c1-c1cccc(-c2nnn[nH]2)c1)/c1ccc2ccccc2n1 [Cpd 105, (E)-4-(3-(3-(1H-Tetrazol-5-yl)phenyl)-2-(2-(quinolin-2-yl)vinyl)imidazo[1,2-b]pyridazin-8-yl)morpholine trifluoroacetic acid salt]",4 nM,5 nM
"O=C(O)c1ccc(-c2c(C#Cc3nc4ccccc4[nH]3)nc3c(N4CCOCC4)ccnn23)cc1 [Cpd 108, 4-(2-((1H-Benzo[d]imidazol-2-yl)ethynyl)-8-morpholinoimidazo[1,2-b]pyridazin-3-yl)benzoic acid]",< 1 nM,< 1 nM
"COc1cccc(C#Cc2nc3c(N4CCOCC4)ccnn3c2-c2ccc(C(=O)O)cc2)n1 [Cpd 109, 4-(2-((6-Methoxypyridin-2-yl)ethynyl)-8-morpholinoimidazo[1,2-b]pyridazin-3-yl)benzoic acid]",< 1 nM,< 1 nM
"COc1ccc(C#Cc2nc3c(N4CCOCC4)ccnn3c2-c2ccc(C(=O)O)cc2)nc1 [Cpd 110, 4-(2-((5-Methoxypyridin-2-yl)ethynyl)-8-morpholinoimidazo[1,2-b]pyridazin-3-yl)benzoic acid]",2 nM,2 nM
"O=C(O)c1ccc(-c2c(C#Cc3cccc(C(F)(F)F)n3)nc3c(N4CCOCC4)ccnn23)cc1 [Cpd 111, 4-(8-Morpholino-2-((6-(trifluoromethyl)pyridin-2-yl)ethynyl)imidazo[1,2-b]pyridazin-3-yl)benzoic acid]",~18 nM,17 nM
"O=C(O)c1cccc2nc(/C=C/c3cn4nccc(N5CCOCC5)c4n3)ccc12 [Cpd 115, 2-[(E)-2-(8-Morpholin-4-ylimidazo[1,2-b]pyridazin-2-yl)ethenyl]quinoline-5-carboxylic acid]",1 nM,1 nM
"O=C(NO)c1cccc2nc(/C=C/c3cn4nccc(N5CCOCC5)c4n3)ccc12 [Cpd 118, N-Hydroxy-2-[(E)-2-(8-morpholin-4-ylimidazo[1,2-b]pyridazin-2-yl)ethenyl]quinoline-5-carboxamide]",< 1 nM,1 nM
"COc1cc2ccccc2nc1/C=C/c1nc2c(N3CCOCC3)ccnn2c1-c1ccc(C(=O)O)cc1 [Cpd 119, (E)-4-(2-(2-(3-Methoxyquinolin-2-yl)vinyl)-8-morpholinoimidazo[1,2-b]pyridazin-3-yl)benzoic acid]",6 nM,6 nM
"CS(=O)(=O)NC(=O)c1ccc(-c2c(CSc3ccc4ccccc4n3)nc3c(N4CCOCC4)ccnn23)cc1 [Cpd 120, N-(Methylsulfonyl)-4-(8-morpholino-2-((quinolin-2-ylthio)methyl)imidazo[1,2-b]pyridazin-3-yl)benzamide]",3 nM,2 nM
"CS(=O)(=O)NC(=O)c1cccc2nc(/C=C/c3nc4c(N5CCOCC5)ccnn4c3-c3ccccc3)ccc12 [Cpd 122, (E)-N-(Methylsulfonyl)-2-(2-(8-morpholino-3-phenylimidazo[1,2-b]pyridazin-2-yl)vinyl)quinoline-5-carboxamide]",4 nM,7 nM
"O=C(O)c1cc(/C=C/c2cn3nc(Cl)cc(N4CCOCC4)c3n2)nc2ccccc12 [Cpd 126, 2-[(E)-2-(6-Chloro-8-morpholin-4-ylimidazo[1,2-b]pyridazin-2-yl)ethenyl]quinoline-4-carboxylic acid]",2 nM,1 nM
"CS(=O)(=O)NC(=O)CCc1ccc(-c2c(/C=C/c3ccc4ccccc4n3)nc3c(N4CCOCC4)ccnn23)cn1 [Cpd 129, (E)-N-(Methylsulfonyl)-3-(5-(8-morpholino-2-(2-(quinolin-2-yl)vinyl)imidazo[1,2-b]pyridazin-3-yl)pyridin-2-yl)propanamide trifluoroacetic acid salt]",2 nM,6 nM
"Clc1cc(N2CCOCC2)c2nc([C@H]3C[C@H](c4ccc5ccccc5n4)C3)cn2n1 [Cpd 130, 2-[trans-3-(6-Chloro-8-morpholin-4-ylimidazo[1,2-b]pyridazin-2-yl)cyclobutyl]quinoline]",19 nM,30 nM
